ChEMBL document CHEMBL3616377, “2-(3'-Indolyl)-N-arylthiazole-4-carboxamides: Synthesis and evaluation of antibacterial and anticancer activities” (Bioorg Med Chem Lett, 2015)
In brackets after ≈: the same amount, converted by molar mass. Activity calls are given as the source filed them. No cut-off for these calls is given here.

Key:
Staphylococcus aureus [1] = test: Antibacterial activity against methicillin-resistant Staphylococcus aureus; assay type: functional
Staphylococcus aureus [2] = test: Antibacterial activity against Staphylococcus aureus MTCC 96 after 18 to 24 hrs by broth microdilution method; assay type: functional
Staphylococcus aureus [3] = test: Antibacterial activity against Staphylococcus aureus MTCC 96 after 18 to 24 hrs by agar well diffusion method; assay type: functional
Bacillus subtilis [4] = test: Antibacterial activity against Bacillus subtilis MTCC 121 after 18 to 24 hrs by agar well diffusion method; assay type: functional
Bacillus subtilis [5] = test: Antibacterial activity against Bacillus subtilis MTCC 121 after 18 to 24 hrs by broth microdilution method; assay type: functional
Escherichia coli [6] = test: Antibacterial activity against Escherichia coli MTCC 1652 after 18 to 24 hrs by agar well diffusion method; assay type: functional
Escherichia coli [7] = test: Antibacterial activity against Escherichia coli MTCC 1652 after 18 to 24 hrs by broth microdilution method; assay type: functional
Pseudomonas putida [8] = test: Antibacterial activity against Pseudomonas putida MTCC 102 after 18 to 24 hrs by agar well diffusion method; assay type: functional
Pseudomonas putida [9] = test: Antibacterial activity against Pseudomonas putida MTCC 102 after 18 to 24 hrs by broth microdilution method; assay type: functional
Escherichia coli [10] = test: Bactericidal activity against Escherichia coli MTCC 1652 assessed as reduction of number of bacterial cells at 4 times MIC after 1 to 6 hrs; assay type: functional, organism-based
Pseudomonas putida [11] = test: Bactericidal activity against Pseudomonas putida MTCC 102 assessed as reduction of number of bacterial cells at 4 times MIC after 1 to 6 hrs; assay type: functional, organism-based
Escherichia coli [12] = test: Bactericidal activity against Escherichia coli MTCC 1652 assessed as reduction of number of bacterial cells at 4 times MIC after 2 to 3 hrs; assay type: functional, organism-based
Pseudomonas putida [13] = test: Bactericidal activity against Pseudomonas putida MTCC 102 assessed as reduction of number of bacterial cells at 4 times MIC after 2 to 3 hrs; assay type: functional, organism-based
[14] = Solubility of the compound in 0.05 to 0.1% DMSO; assay type: physicochemical
HeLa [15] = test: Cytotoxicity against human HeLa cells after 48 hrs by MTT assay in absence of 10% FBS; assay type: functional, cell-based
PC-3 [16] = test: Cytotoxicity against human PC3 cells after 48 hrs by MTT assay in absence of 10% FBS; assay type: functional, cell-based; conditions: PC-3, 48 h
MDA-MB-231 [17] = test: Cytotoxicity against human MDA-MB-231 cells after 48 hrs by MTT assay in absence of 10% FBS; assay type: functional, cell-based; conditions: MDA-MB-231, 48 h
LNCaP [18] = test: Cytotoxicity against human LNCAP cells after 48 hrs by MTT assay in absence of 10% FBS; assay type: functional, cell-based
HEK-293T [19] = test: Cytotoxicity against human HEK293T cells after 48 hrs by MTT assay in presence of 10% FBS; assay type: cell-based
[20] = Cytotoxicity against human castration-resistant C4-2 cells after 48 hrs by MTT assay in presence of 10% FBS; assay type: functional, cell-based; conditions: LNCaP C4-2, 48 h
HeLa [21] = test: Cytotoxicity against human HeLa cells after 48 hrs by MTT assay in presence of 10% FBS; assay type: functional, cell-based
PC-3 [22] = test: Cytotoxicity against human PC3 cells after 48 hrs by MTT assay in presence of 10% FBS; assay type: functional, cell-based; conditions: PC-3, 48 h
MDA-MB-231 [23] = test: Cytotoxicity against human MDA-MB-231 cells after 48 hrs by MTT assay in presence of 10% FBS; assay type: functional, cell-based; conditions: MDA-MB-231, 48 h
LNCaP [24] = test: Cytotoxicity against human LNCAP cells after 48 hrs by MTT assay in presence of 10% FBS; assay type: functional, cell-based
HeLa [25] = test: Induction of apoptosis in human HeLa cells assessed as formation of apoptotic nuclei formation at 10 uM after 24 hrs using propidium iodide staining by fluorescence microscopy analysis; assay type: functional, cell-based
HEK-293T [26] = test: Cytotoxicity against human HEK293T cells after 48 hrs by MTT assay in absence of 10% FBS; assay type: cell-based
[27] = Cytotoxicity against human castration-resistant C4-2 cells after 48 hrs by MTT assay in absence of 10% FBS; assay type: functional, cell-based; conditions: LNCaP C4-2, 48 h
SK-N-MC = test: Cytotoxicity against human SK-N-MC cells by MTT assay; assay type: functional, cell-based
HepG2 = test: Cytotoxicity against human HepG2 cells by MTT assay; assay type: functional, cell-based
MCF7 = test: Cytotoxicity against human MCF7 cells by MTT assay; assay type: functional, cell-based

Row | MIC (Staphylococcus aureus [2]) [mg/L] | MIC (Bacillus subtilis [5]) [mg/L] | MIC (Escherichia coli [7]) [mg/L] | MIC (Pseudomonas putida [9]) [mg/L] | SMILES | inhibition zone (IZ) (Staphylococcus aureus [3]) [mm] | inhibition zone (IZ) (Bacillus subtilis [4]) [mm] | inhibition zone (IZ) (Escherichia coli [6]) [mm] | inhibition zone (IZ) (Pseudomonas putida [8]) [mm] | Activity (Escherichia coli [10]) | Activity (Pseudomonas putida [11]) | Activity (Escherichia coli [12]) | Activity (Pseudomonas putida [13]) | IC50 (PC-3 [16]) [µM] | IC50 (MDA-MB-231 [17]) [µM] | IC50 (LNCaP [18]) [µM] | IC50 (HEK-293T [19]) [µM] | IC50 [20] [µM] | IC50 (PC-3 [22]) [µM] | IC50 (LNCaP [24]) [µM] | Activity (HeLa [25]) | further results
1 |  |  |  |  | Clc1ccc2ccc(-c3c[nH]c4ccc(Br)cc34)nc2c1 |  |  |  |  |  |  |  |  |  |  |  |  |  |  |  |  | MIC (Staphylococcus aureus [1]): < 1 mg/L
2 | 50 (≈ 117 µM) | 50 (≈ 117 µM) | 12.5 (≈ 29.2 µM) | 12.5 (≈ 29.2 µM) | COc1ccc(NC(=O)c2csc(-c3c[nH]c4ccc(Br)cc34)n2)cc1 | 14 | 15 | 15 | 16 | Active | Active | Active | Active |  |  |  |  |  |  |  |  | solubility [14]: Insoluble
3 | 100 (≈ 228 µM) | 50 (≈ 114 µM) | 12.5 (≈ 28.4 µM) | 12.5 (≈ 28.4 µM) | COc1ccc2[nH]cc(-c3nc(C(=O)Nc4cc(OC)c(OC)c(OC)c4)cs3)c2c1 | 13 | 14 | 18 | 18 | Active | Active | Active | Active | 94.3 | > 100 | > 100 | 8.74 | > 100 | > 100 | 84.8 | Active | IC50 (HeLa [15]): 29.6 µM; IC50 (HeLa [21]): 9.98 µM; IC50 (MDA-MB-231 [23]): > 100 µM; IC50 (HEK-293T [26]): 8.6 µM; IC50 [27]: > 100 µM
4 |  |  |  |  | Cc1ccc(-c2nc(C(=O)Nc3ccccc3)cs2)cc1 |  |  |  |  |  |  |  |  |  |  |  |  |  |  |  |  | IC50 (SK-N-MC): 10 µM; IC50 (HepG2): 10 µM; IC50 (MCF7): 10 µM
5 |  |  |  |  | COc1cccc2c1C(=O)c1c(O)c3c(c(O)c1C2=O)C[C@@](O)(C(=O)CO)C[C@@H]3O[C@H]1C[C@H](N)[C@H](O)[C@H](C)O1 [DOXORUBICIN] |  |  |  |  |  |  |  |  | 7.65 | 6.03 | 6.46 | 0.75 | 0.57 | 9.8 | 7.4 | Active | IC50 (HEK-293T [26]): 0.84 µM; IC50 [27]: 1.02 µM
